Results: US7118895B2, “Process for producing aglycon by using diglycosidase and flavor-improved food containing the aglycon and converting agent to be used in the process” (Amano Enzyme Inc., priority 2000, dated 2006)

Tested on: Crude diglycosidase
Experiment: Examination of temperature in the conversion into isoflavone aglycons by diglycosidase using soybean materials
Type: biochemical, Penicillium multicolor IAM7153
Set-up: Decomposition efficiency of glycitin family in roasted soy flour / Decomposition efficiency of daidzin family in roasted soy flour / Decomposition efficiency of genistin family in soymilk / Decomposition efficiency of daidzin family in soymilk / Decomposition efficiency of glycitin family in defatted soybean / Decomposition efficiency of daidzin family in defatted soybean: concentration or dose not given beside the values
Procedure, shortened: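 Soybean materials (50 mg) suspended in 20 mM acetate buffer pH 4.0 reacted with crude diglycosidase diluted to 1.88 AU/mL at 80, 65, 55, 45, 37 or 30° C. Reactions stopped with ethanol at 0, 1, 3 and 6 h; isoflavone glycosides and aglycons in supernatant detected by HPLC.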

[1] = 30 °C, heat treatment of enzyme: no, 0 h
[2] = 30 °C, heat treatment of enzyme: no, 1 h
[3] = 30 °C, heat treatment of enzyme: no, 3 h
[4] = 30 °C, heat treatment of enzyme: no, 6 h
[5] = 30 °C, heat treatment of enzyme: yes, 6 h
[6] = 45 °C, heat treatment of enzyme: no, 0 h
[7] = 45 °C, heat treatment of enzyme: no, 1 h
[8] = 45 °C, heat treatment of enzyme: no, 3 h
[9] = 45 °C, heat treatment of enzyme: no, 6 h
[10] = 45 °C, heat treatment of enzyme: yes, 6 h
[11] = 55 °C, heat treatment of enzyme: no, 0 h
[12] = 55 °C, heat treatment of enzyme: no, 1 h
[13] = 55 °C, heat treatment of enzyme: no, 3 h
[14] = 55 °C, heat treatment of enzyme: no, 6 h
[15] = 55 °C, heat treatment of enzyme: yes, 6 h
[16] = 65 °C, heat treatment of enzyme: no, 0 h
[17] = 65 °C, heat treatment of enzyme: no, 1 h
[18] = 65 °C, heat treatment of enzyme: no, 3 h
[19] = 65 °C, heat treatment of enzyme: no, 6 h
[20] = 65 °C, heat treatment of enzyme: yes, 6 h
[21] = 80 °C, heat treatment of enzyme: no, 0 h
[22] = 80 °C, heat treatment of enzyme: no, 1 h
[23] = 80 °C, heat treatment of enzyme: no, 3 h
[24] = 80 °C, heat treatment of enzyme: no, 6 h
[25] = 80 °C, heat treatment of enzyme: yes, 6 h

For `COc1cc2c(=O)c(-c3ccc(O)cc3)coc2cc1O[C@@H]1O[C@H](CO)[C@@H](O)[C@H](O)[C@H]1O` [glycitin], the “Decomposition efficiency of glycitin family in defatted soybean” value (30° C., heat treatment of enzyme no, reaction time 0 h) was “not detected”, the “Decomposition efficiency of glycitin family in defatted soybean” value (30° C., heat treatment of enzyme no, reaction time 1 h) was “not detected” and the “Decomposition efficiency of glycitin family in defatted soybean” value (30° C., heat treatment of enzyme no, reaction time 3 h) was “not detected”. The “Decomposition efficiency of glycitin family in defatted soybean” value (30° C., heat treatment of enzyme no, reaction time 6 h) was “not detected”, the “Decomposition efficiency of glycitin family in defatted soybean” value (30° C., heat treatment of enzyme yes, reaction time 6 h) was “not detected” and the “Decomposition efficiency of glycitin family in concentrated soybean protein” value [1] was 52.2%. For the same molecule, the “Decomposition efficiency of glycitin family in roasted soy flour” value [1] was 50.9%, the “Decomposition efficiency of glycitin family in soymilk” value (“Decomposition efficiency … in soymilk” below) [1] was 43.9% and the “Decomposition efficiency of glycitin family in concentrated soybean protein” value [2] was 47.1%. For the same molecule, the “Decomposition efficiency of glycitin family in roasted soy flour” value [2] was 34.8%, the “Decomposition efficiency … in soymilk” value [2] was “not detected” and the “Decomposition efficiency of glycitin family in concentrated soybean protein” value [3] was 39.1%. For the same molecule, the “Decomposition efficiency of glycitin family in roasted soy flour” value [3] was “not detected”, the “Decomposition efficiency … in soymilk” value [3] was “not detected” and the “Decomposition efficiency of glycitin family in concentrated soybean protein” value [4] was 28.4%. For the same molecule, the “Decomposition efficiency of glycitin family in roasted soy flour” value [4] was “not detected”, the “Decomposition efficiency … in soymilk” value [4] was “not detected” and the “Decomposition efficiency of glycitin family in concentrated soybean protein” value [5] was 52.8%. For the same molecule, the “Decomposition efficiency of glycitin family in roasted soy flour” value [5] was 51.4%, the “Decomposition efficiency … in soymilk” value [5] was 44.5% and the “Decomposition efficiency of glycitin family in defatted soybean” value (45° C., heat treatment of enzyme no, reaction time 0 h) was “not detected”. For the same molecule, the “Decomposition efficiency of glycitin family in defatted soybean” value (45° C., heat treatment of enzyme no, reaction time 1 h) was “not detected”, the “Decomposition efficiency of glycitin family in defatted soybean” value (45° C., heat treatment of enzyme no, reaction time 3 h) was “not detected” and the “Decomposition efficiency of glycitin family in defatted soybean” value (45° C., heat treatment of enzyme no, reaction time 6 h) was “not detected”. For the same molecule, the “Decomposition efficiency of glycitin family in defatted soybean” value (45° C., heat treatment of enzyme yes, reaction time 6 h) was “not detected”, the “Decomposition efficiency of glycitin family in concentrated soybean protein” value [6] was 52.3% and the “Decomposition efficiency of glycitin family in roasted soy flour” value [6] was 51.3%. For the same molecule, the “Decomposition efficiency … in soymilk” value [6] was 42.6%, the “Decomposition efficiency of glycitin family in concentrated soybean protein” value [7] was 30.2% and the “Decomposition efficiency of glycitin family in roasted soy flour” value [7] was 12.4%. For the same molecule, the “Decomposition efficiency … in soymilk” value [7] was “not detected”, the “Decomposition efficiency of glycitin family in concentrated soybean protein” value [8] was 18.8% and the “Decomposition efficiency of glycitin family in roasted soy flour” value [8] was 12.4%. The “Decomposition efficiency … in soymilk” value [8] was “not detected”, the “Decomposition efficiency of glycitin family in concentrated soybean protein” value [9] was 7.5% and the “Decomposition efficiency of glycitin family in roasted soy flour” value [9] was 5.9%. The “Decomposition efficiency … in soymilk” value [9] was “not detected”, the “Decomposition efficiency of glycitin family in concentrated soybean protein” value [10] was 53.2% and the “Decomposition efficiency of glycitin family in roasted soy flour” value [10] was 49.8%. The “Decomposition efficiency … in soymilk” value [10] was 45.4%, the “Decomposition efficiency of glycitin family in defatted soybean” value (55° C., heat treatment of enzyme no, reaction time 0 h) was “not detected” and the “Decomposition efficiency of glycitin family in defatted soybean” value (55° C., heat treatment of enzyme no, reaction time 1 h) was “not detected”. The “Decomposition efficiency of glycitin family in defatted soybean” value (55° C., heat treatment of enzyme no, reaction time 3 h) was “not detected”, the “Decomposition efficiency of glycitin family in defatted soybean” value (55° C., heat treatment of enzyme no, reaction time 6 h) was “not detected” and the “Decomposition efficiency of glycitin family in defatted soybean” value (55° C., heat treatment of enzyme yes, reaction time 6 h) was “not detected”. For the same molecule, the “Decomposition efficiency of glycitin family in concentrated soybean protein” value [11] was 52.3%, the “Decomposition efficiency of glycitin family in roasted soy flour” value [11] was 50.5% and the “Decomposition efficiency … in soymilk” value [11] was 47.8%. The “Decomposition efficiency of glycitin family in concentrated soybean protein” value [12] was 14.2%, the “Decomposition efficiency of glycitin family in roasted soy flour” value [12] was “not detected” and the “Decomposition efficiency … in soymilk” value [12] was “not detected”. For the same molecule, the “Decomposition efficiency of glycitin family in concentrated soybean protein” value [13] was “not detected”, the “Decomposition efficiency of glycitin family in roasted soy flour” value [13] was “not detected” and the “Decomposition efficiency … in soymilk” value [13] was “not detected”. The “Decomposition efficiency of glycitin family in concentrated soybean protein” value [14] was “not detected”, the “Decomposition efficiency of glycitin family in roasted soy flour” value [14] was “not detected” and the “Decomposition efficiency … in soymilk” value [14] was “not detected”. The “Decomposition efficiency of glycitin family in concentrated soybean protein” value [15] was 52.9%, the “Decomposition efficiency of glycitin family in roasted soy flour” value [15] was 51.7% and the “Decomposition efficiency … in soymilk” value [15] was 53.5%. The “Decomposition efficiency of glycitin family in defatted soybean” value (65° C., heat treatment of enzyme no, reaction time 0 h) was “not detected”, the “Decomposition efficiency of glycitin family in defatted soybean” value (65° C., heat treatment of enzyme no, reaction time 1 h) was “not detected” and the “Decomposition efficiency of glycitin family in defatted soybean” value (65° C., heat treatment of enzyme no, reaction time 3 h) was “not detected”. For the same molecule, the “Decomposition efficiency of glycitin family in defatted soybean” value (65° C., heat treatment of enzyme no, reaction time 6 h) was “not detected”, the “Decomposition efficiency of glycitin family in defatted soybean” value (65° C., heat treatment of enzyme yes, reaction time 6 h) was “not detected” and the “Decomposition efficiency of glycitin family in concentrated soybean protein” value [16] was 52.2%. The “Decomposition efficiency of glycitin family in roasted soy flour” value [16] was 50.9%, the “Decomposition efficiency … in soymilk” value [16] was 43.9% and the “Decomposition efficiency of glycitin family in concentrated soybean protein” value [17] was 5.2%. For the same molecule, the “Decomposition efficiency of glycitin family in roasted soy flour” value [17] was “not detected”, the “Decomposition efficiency … in soymilk” value [17] was “not detected” and the “Decomposition efficiency of glycitin family in concentrated soybean protein” value [18] was “not detected”. The “Decomposition efficiency of glycitin family in roasted soy flour” value [18] was “not detected”, the “Decomposition efficiency … in soymilk” value [18] was “not detected” and the “Decomposition efficiency of glycitin family in concentrated soybean protein” value [19] was “not detected”. For the same molecule, the “Decomposition efficiency of glycitin family in roasted soy flour” value [19] was “not detected”, the “Decomposition efficiency … in soymilk” value [19] was “not detected” and the “Decomposition efficiency of glycitin family in concentrated soybean protein” value [20] was 52.5%. For the same molecule, the “Decomposition efficiency of glycitin family in roasted soy flour” value [20] was 50.3%, the “Decomposition efficiency … in soymilk” value [20] was 56.8% and the “Decomposition efficiency of glycitin family in defatted soybean” value (80° C., heat treatment of enzyme no, reaction time 0 h) was “not detected”. For the same molecule, the “Decomposition efficiency of glycitin family in defatted soybean” value (80° C., heat treatment of enzyme no, reaction time 1 h) was “not detected”, the “Decomposition efficiency of glycitin family in defatted soybean” value (80° C., heat treatment of enzyme no, reaction time 3 h) was “not detected” and the “Decomposition efficiency of glycitin family in defatted soybean” value (80° C., heat treatment of enzyme no, reaction time 6 h) was “not detected”. The “Decomposition efficiency of glycitin family in defatted soybean” value (80° C., heat treatment of enzyme yes, reaction time 6 h) was “not detected”, the “Decomposition efficiency of glycitin family in concentrated soybean protein” value [21] was 52.3% and the “Decomposition efficiency of glycitin family in roasted soy flour” value [21] was 51.3%. For the same molecule, the “Decomposition efficiency … in soymilk” value [21] was 42.6%, the “Decomposition efficiency of glycitin family in concentrated soybean protein” value [22] was 39.7% and the “Decomposition efficiency of glycitin family in roasted soy flour” value [22] was 19.2%. For the same molecule, the “Decomposition efficiency … in soymilk” value [22] was 10.7%, the “Decomposition efficiency of glycitin family in concentrated soybean protein” value [23] was 40.5% and the “Decomposition efficiency of glycitin family in roasted soy flour” value [23] was 20.5%. The “Decomposition efficiency … in soymilk” value [23] was 22.5%, the “Decomposition efficiency of glycitin family in concentrated soybean protein” value [24] was 41.7% and the “Decomposition efficiency of glycitin family in roasted soy flour” value [24] was 33.6%. For the same molecule, the “Decomposition efficiency … in soymilk” value [24] was 44.2%, the “Decomposition efficiency of glycitin family in concentrated soybean protein” value [25] was 53.6% and the “Decomposition efficiency of glycitin family in roasted soy flour” value [25] was 50.6%. For the same molecule, the “Decomposition efficiency … in soymilk” value [25] was 71.4%.
